Measured values reported in patent US8124599B2, “Method for treating neuronal and non-neuronal pain” (priority 2005, dated 2012).

Tests used:
[1] = system: chronic inflammatory muscle pain; experiment: Chronic inflammatory muscle pain (intramuscular carrageenan), mechanical allodynia by von Frey filament; type: in vivo, mice
Procedure: The mice used in this work were C57B1/6 strain adults (8 weeks old) and AC1 knockout mice of C57B1/6 background (Wei et al., 2002; Neuron). The animals were housed on a 12 h: 12 h light: dark cycle with food and water available ad libidum. All the protocols were in accordance with the Animal Care Committee of the University of Toronto. Both wild type and the knockouts were well groomed. Experimenters were blind to genotype. A muscle model of mechanical allodynia developed originally to study chronic pain (Sluka et al., 2001) was adapted for these experiments. Mice were briefly anaesthetized under halothane. 20μ liters carrageenan (3%, in normal saline pH 7.2) was injected intramuscularly deep into the left gastronemius muscle. Normal saline was used as a control. Injections were carried out on days 1 and 5. Behavioral nociceptive responses were measured on days 1, 2, 5 (before and after injection), 14 and 28. Mice were placed in a plexi-glass restrainer and allowed to acclimate for 30 minutes prior to testing. Mechanical allodynia was assessed based on the responsiveness of the hind paw to the application of von Frey filaments (Stoelting, Wood Dale, Ill.) to the point of bending. […] Ten trials were carried out each time at an interval of 5 minutes and the results were expressed as a percentage of positive responses. […]

neuropathic pain = experiment: Neuropathic pain (common peroneal nerve ligation), mechanical allodynia; type: in vivo, mice; conditions: 0.1 and 1 mg/kg body weight
Procedure: The mice used in this work were C57B1/6 strain adults (8 weeks old) and AC1 knockout mice of C57B1/6 background (Wei et al., 2002; Neuron). The animals were housed on a 12 h: 12 h light: dark cycle with food and water available ad libidum. All the protocols were in accordance with the Animal Care Committee of the University of Toronto. Both wild type and the knockouts were well groomed. Experimenters were blind to genotype. Mice were placed in a plexi-glass restrainer and allowed to acclimate for 30 minutes prior to testing. Mechanical allodynia was assessed based on the responsiveness of the hind paw to the application of von Frey filaments (Stoelting, Wood Dale, Ill.) to the point of bending. Positive responses include licking, biting and sudden withdrawing of the hind paw. Experiments were carried out to characterize the threshold stimulus. […] This filament was then used to test mechanical allodynia. Ten trials were carried out each time at an interval of 5 minutes and the results were expressed as a percentage of positive responses. Positive responses included prolonged hind paw withdrawal followed by licking or scratching. Neuropathic pain was induced by ligating the common peroneal nerve as previously known in the art. […] The effect of AC1 inhibition was assessed on maximal mechanical allodynia over the dorsum of the foot on the ipsilateral side of ligation on day 7. […]

[2] = system: combined chronic inflammatory pain and neuropathic pain; experiment: Combination of chronic inflammatory pain and neuropathic pain, mechanical allodynia; type: in vivo, mice; conditions: i.p. pre-treatment
Procedure: The mice used in this work were C57B1/6 strain adults (8 weeks old) and AC1 knockout mice of C57B1/6 background (Wei et al., 2002; Neuron). The animals were housed on a 12 h: 12 h light: dark cycle with food and water available ad libidum. All the protocols were in accordance with the Animal Care Committee of the University of Toronto. Both wild type and the knockouts were well groomed. Experimenters were blind to genotype. A muscle model of mechanical allodynia developed originally to study chronic pain (Sluka et al., 2001) was adapted for these experiments. Mice were briefly anaesthetized under halothane. 20μ liters carrageenan (3%, in normal saline pH 7.2) was injected intramuscularly deep into the left gastronemius muscle. Normal saline was used as a control. Injections were carried out on days 1 and 5. Behavioral nociceptive responses were measured on days 1, 2, 5 (before and after injection), 14 and 28. […] Mechanical allodynia was assessed based on the responsiveness of the hind paw to the application of von Frey filaments (Stoelting, Wood Dale, Ill.) to the point of bending. […] Ten trials were carried out each time at an interval of 5 minutes and the results were expressed as a percentage of positive responses. […] The effect of AC1 inhibition was assessed on maximal mechanical allodynia over the dorsum of the foot on the ipsilateral side of ligation on day 7. […]

[3] = system: acute inflammatory muscle pain; experiment: Formalin lick test for acute inflammatory muscle pain; type: in vivo, mice
Procedure: The mice used in this work were C57B1/6 strain adults (8 weeks old) and AC1 knockout mice of C57B1/6 background (Wei et al., 2002; Neuron). The animals were housed on a 12 h: 12 h light: dark cycle with food and water available ad libidum. All the protocols were in accordance with the Animal Care Committee of the University of Toronto. Both wild type and the knockouts were well groomed. Experimenters were blind to genotype. Under brief halothane anesthesia, 10 μL of 5% formalin was injected to the left gastronemius muscle. The needle was directed from the lateral side to avoid any bony penetration and the tip was stopped at the middle of the muscle belly. The total time spent licking or biting the injected leg including the thigh and the paw was recorded and totaled every 5 minutes for a period of 2 hours. To study the effect of test compounds on behavior, each compound to be tested was injected intra-peritoneally 30 minutes before the intramuscular injection of formalin.

[4] = system: mechanical allodynia in pain model; experiment: Oral administration to pain model (rat), mechanical allodynia; type: in vivo; conditions: 1 mg/kg/3 ml, as compared with the response to gabapentin

Structure (SMILES)	mechanical allodynia in chronic inflammatory muscle pain, comparison of dosages ([1]; 1 mg/kg versus 0.1 mg/kg)	mechanical allodynia in chronic inflammatory muscle pain ([1]; 0.1 and 1 mg/kg body weight, von Frey filament)	allodynia in neuropathic pain (neuropathic pain)	mechanical allodynia in combined chronic inflammatory and neuropathic pain ([2]; 0.1 and 1 mg/kg body weight)	dose of peak response, licking response of acute muscle inflammatory pain ([3]; dose range 0.1 to 5 mg/kg) [mg/kg body weight]	licking response of acute muscle inflammatory pain ([3]; dose range of 0.1 to 5 mg/kg bodyweight, intra-peritoneally 30 minutes before formalin, P<0.001)	mechanical allodynia after oral administration [4]	mechanical allodynia in combined chronic inflammatory and neuropathic pain ([2]; 0.1 mg/kg and 1.1 mg/kg body weight)
Nc1ncnc2c1ncn2CCNCCCCCO [HTS09836]	superior effect	significant reduction in mechanical allodynia	significantly reduced	significantly reduced	1	significant reduction		
Nc1ncnc2c1ncn2CCNCCCCCO [NB001]							significant reduction in mechanical allodynia	significantly reduced
